Source: patent publication US10011573B2, “Human androgen receptor DNA-binding domain (DBD) compounds as therapeutics and methods for their use” (The University of British Columbia, priority 2014, dated 2018)
Read-outs that look alike come from different tables or passages of the source.

Columns and labels:
FKBP5 = assay: Western blot FKBP5 protein in R1-D567 cells; assay type: cell-based, human
Description: Cell lysates (40 μl) from luciferase assays (96-well plate) were separated on a 10% SDS-polyacrylamide mini gel. Protein was transferred to methanol-charged PVDF membranes and probed with anti-AR441 (mouse, Sigma™) monoclonal primary antibody. Blots were also probed with polyclonal anti-actin (rabbit, Sigma™) to show equal loading and polyclonal anti-PARP/anti-cleaved PARP (rabbit, Sigma™) to test for induction of apoptosis. Lysates from CWR-R1 cells were additionally probed with polyclonal anti-FKBP5 (rabbit, Sigma™) following 2 days of incubation with compounds.

AR-DBD+hinge / ARE dsDNA = target: T1, AR-DBD+hinge / ARE dsDNA (Homo sapiens, UniProt P10275); assay: EMSA (gel shift) assay; assay type: biochemical; set-up: His6 (N); made in house; host or cells: E. coli BL21 (DE3)
T1 sequence (P10275 558-689): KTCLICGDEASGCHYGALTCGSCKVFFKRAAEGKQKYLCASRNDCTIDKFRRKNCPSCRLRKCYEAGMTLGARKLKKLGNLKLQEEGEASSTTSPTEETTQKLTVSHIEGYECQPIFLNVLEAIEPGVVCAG
Description: The plasmid encoding the AR-DBD+hinge was transformed into BL21 (DE3). BL21 cells designated for expression of biotin-labeled AR-DBD+hinge were co-transformed with the Pan4 AR-DBD+hinge (ampicillin selection) and biotin ligase expression vectors (pBir-Acm, chloramphenicol selection). Single colonies were grown in 2 liters of LB media supplemented with 50 μg/ml ampicillin and 35 μg/ml chloramphenicol (where appropriate) to A600 nm=0.6 before induction with 0.1 mM isopropyl β-D-1-thiogalactopyranoside for 3 h at 37° C. Cultures expressing the AR-DBD with the biotinylation sequence were simultaneously supplemented with 0.150 mM biotin during the induction step. Cell pellets were resuspended in ˜20 ml of 50 mM Tris-HCl, pH 8.0, 300 mM NaCl, 5% glycerol (Buffer A) supplemented with 10 mM imidazole and incubated with 0.1 mg/ml chicken egg white lysozyme (Sigma™) and 0.1 mM PMSF protease inhibitor for 30 min on ice. Cell lysis was achieved by sonication, followed by centrifugation at 13,000×g for 30 min at 4° C. The supernatant was rotated with 2 ml of nickel-agarose beads (GE Healthcare™) for 1 h at 4° C. and then directly loaded onto a Poly-Prep 10-ml gravity chromatography column (Bio-Rad™). Washing was performed with 2×4 ml of Buffer A supplemented with 20 mM imidazole. Pure proteins were eluted in 500-μl fractions with 2 ml of Buffer A containing 250 mM imidazole. […]

YFP-AR = target: T2, YFP-AR (Homo sapiens, UniProt P10275); assay: Confocal microscopy of YFP-AR nuclear localization in PC3 cells; assay type: cell-based
T2 construct: plasmids encoding YFP-tagged full-length AR (yellow fluorescent protein, YFP-AR); expressed in transfected cells; host or cells: PC3
T2 sequence (P10275 1-920): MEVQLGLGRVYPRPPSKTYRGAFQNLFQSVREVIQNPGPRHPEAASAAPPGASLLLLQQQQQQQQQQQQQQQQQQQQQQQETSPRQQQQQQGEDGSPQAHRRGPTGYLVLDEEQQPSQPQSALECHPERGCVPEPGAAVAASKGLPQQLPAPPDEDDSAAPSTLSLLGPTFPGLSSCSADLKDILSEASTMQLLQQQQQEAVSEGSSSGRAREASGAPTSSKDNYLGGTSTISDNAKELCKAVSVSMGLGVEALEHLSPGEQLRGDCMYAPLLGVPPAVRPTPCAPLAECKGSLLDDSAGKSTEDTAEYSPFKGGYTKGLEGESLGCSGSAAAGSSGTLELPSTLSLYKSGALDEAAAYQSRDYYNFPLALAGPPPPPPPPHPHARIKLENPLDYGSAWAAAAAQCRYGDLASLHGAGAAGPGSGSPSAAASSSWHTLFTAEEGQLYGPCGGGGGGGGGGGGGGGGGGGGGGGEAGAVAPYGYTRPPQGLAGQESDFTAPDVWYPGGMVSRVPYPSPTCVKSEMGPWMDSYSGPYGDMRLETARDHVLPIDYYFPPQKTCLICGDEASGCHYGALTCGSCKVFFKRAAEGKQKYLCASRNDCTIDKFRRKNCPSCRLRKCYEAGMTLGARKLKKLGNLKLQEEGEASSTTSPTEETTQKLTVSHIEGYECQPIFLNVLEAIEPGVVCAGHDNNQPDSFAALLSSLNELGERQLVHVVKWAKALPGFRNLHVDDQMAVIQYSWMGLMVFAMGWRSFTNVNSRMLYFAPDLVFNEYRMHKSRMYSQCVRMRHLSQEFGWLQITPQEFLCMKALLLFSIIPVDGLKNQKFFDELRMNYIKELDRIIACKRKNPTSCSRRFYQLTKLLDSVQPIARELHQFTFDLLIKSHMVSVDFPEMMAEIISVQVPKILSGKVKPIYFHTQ
Description: Transfection of YFP-AR or YFP-V7 plasmids (100 ng per well) was performed using TT20 (3 μl) for 48 h. […] After aspiration of the media, cells were washed once with PBS and fixed in 4% paraformaldehyde overnight at 4° C., followed by mounting on charged cover slides using DAPI mount (Vector Laboratories).

AR Y594A mutant = AR Y594A mutant (Homo sapiens, UniProt P10275, Y594A); assay: ARR3tk-luciferase reporter assay in PC3 cells, AR Y594A
Chain of AR Y594A mutant (P10275 whole entry Y594A): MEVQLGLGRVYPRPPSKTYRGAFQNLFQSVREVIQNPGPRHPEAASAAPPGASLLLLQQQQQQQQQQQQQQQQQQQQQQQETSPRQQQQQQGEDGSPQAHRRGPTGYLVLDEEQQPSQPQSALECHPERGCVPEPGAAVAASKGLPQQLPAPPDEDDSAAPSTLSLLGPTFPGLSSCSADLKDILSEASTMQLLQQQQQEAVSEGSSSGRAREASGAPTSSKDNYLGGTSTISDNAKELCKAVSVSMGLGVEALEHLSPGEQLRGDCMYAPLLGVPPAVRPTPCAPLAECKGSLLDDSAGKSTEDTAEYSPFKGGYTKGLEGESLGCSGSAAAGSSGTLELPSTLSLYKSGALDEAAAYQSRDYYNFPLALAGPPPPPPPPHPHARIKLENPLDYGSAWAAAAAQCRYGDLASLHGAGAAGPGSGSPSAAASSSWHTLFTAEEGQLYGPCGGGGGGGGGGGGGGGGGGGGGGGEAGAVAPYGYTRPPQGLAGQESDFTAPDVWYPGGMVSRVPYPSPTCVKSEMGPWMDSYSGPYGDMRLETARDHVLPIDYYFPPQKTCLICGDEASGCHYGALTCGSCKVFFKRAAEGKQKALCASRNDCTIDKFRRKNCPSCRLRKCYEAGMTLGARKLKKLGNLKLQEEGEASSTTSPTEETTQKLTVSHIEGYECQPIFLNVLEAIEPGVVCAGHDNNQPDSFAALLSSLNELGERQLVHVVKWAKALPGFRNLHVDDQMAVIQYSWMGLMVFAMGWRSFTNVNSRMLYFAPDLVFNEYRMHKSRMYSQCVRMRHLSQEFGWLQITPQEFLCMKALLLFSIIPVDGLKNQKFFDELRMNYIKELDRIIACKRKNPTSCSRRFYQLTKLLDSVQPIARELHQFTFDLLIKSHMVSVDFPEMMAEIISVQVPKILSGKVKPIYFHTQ
Description: Cells were then treated with compounds at various concentrations and 0.1 nMR1881 (in 100% ethanol) for 24 h. […] Cell lysis was carried out with 60 μl of 1X passive lysis buffer/well (Promega™)
20 μl of cell lysate from each well were mixed with 50 μl of luciferase assay reagent (Promega™), and luminescence was recorded on a TECAN™ M200pro plate reader. Luciferase assays with splice variant AR were performed the same way but with only 5 ng of pcDNA3.1 AR-V7 (to limit the high level of AR-V7 expression) and no R1881.

SMILES	FKBP5 protein expression, R1-D567 cells (FKBP5)	protein-DNA complex formation (gel shift) (AR-DBD+hinge / ARE dsDNA)	R1881-stimulated nuclear localization of YFP-AR (YFP-AR; 10 nM R1881, 25 μM compound, 6 h)	nuclear localization of YFP-AR in the absence of R1881 (YFP-AR; 25 μM compound)	IC50 (AR Y594A mutant)	R1881-stimulated nuclear localization of YFP-AR (YFP-AR)	nuclear localization of YFP-AR in the absence of R1881 (YFP-AR)
Brc1ncn(-c2csc(N3CCOCC3)n2)c1Br [Compound 14449]	reduced	could not prevent protein-DNA complex formation	did not prevent R1881-stimulated nuclear localization	could not stimulate any nuclear localization	3 to 6 µM		
c1ccc(-c2csc(N3CCOCC3)n2)cc1 [Compound 14228, 4-(4-phenylthiazol-2-yl)morpholine]	reduced	could not prevent protein-DNA complex formation			3 to 6 µM	did not prevent R1881-stimulated nuclear localization	could not stimulate any nuclear localization
